Laboratory results as given in US20120190745A1, “ORAL COMPOSITION FOR REDUCING WRINKLE FORMATION” (SHISEIDO COMPANY. LTD., priority 2009, published 2012).

Key:
[1] = tested on: mice irradiated with ultraviolet rays; assay: Wrinkle formation caused by UV irradiation; format: in vivo, Skh-1 hairless mice; settings: 10 mM in drinking water for four weeks; UV-B three times a week, total 1.4 J/cm^2; score 0-8 per Table 1; control 4.9; p<1%
Method: Four weeks after the initiation of the D-glutamic acid administration, the dorsal areas of the mice were photographed, and a partly modified method by Bissett et al. (Bissett, D. L. et al., Photochemistry and Photobiology, 46:367(1987)) was employed to evaluate the degree of wrinkle formation in accordance with the judgment criteria indicated in Table 1 shown below.
(§1) Six week-old Skh-1 hairless mice (male) were employed.
(§2) Drinking water containing 10 mM D-glutamic acid was given via a water supplying bottle for four weeks. The negative control employed was drinking water containing no D-glutamic acid.
(§3) UV irradiation was conducted employing a partly modified method by Schwarz et al. (Haratake, A. et al., J. Invest. Dermatol. 108:769 (1997)) in accordance with the repetitive UV-B irradiation method (Naganuma, M. et al., J. Dermatol.Sci.25:29 (2001), Schwartz, E. J., Invest. Dermatol. 91:158 (1988)). Thus, the dorsal area was irradiated with UV-B(light source: Toshiba FL-20 SE fluorescent lamp manufactured by Toshiba Electric) three times a week for four weeks. The total irradiation dose was 1.4 J/cm^2. The UV dose measured with UVRADIOMETER (UVR-305/365D(II), Topcon Corporation) was employed as a readout.
The wrinkle formation was evaluated by a method similar to that in Example 1.

[2] = tested on: tape-stripped mice; assay: Wrinkle formation caused by tape stripping method; format: in vivo, HR-1 hairless mice; settings: 10 mM in drinking water for four weeks, score 0-8 per Table 1, control 3.5, p<1%
Method: (§4) Five-week old male HR-1 hairless mice (Hoshino Laboratory Animals, Inc.) were subjected to the experiment.
as §2
(§5) For the purpose of forming a wrinkle, a tape stripping method was conducted three times a week starting on five days after the initiation of the D-glutamic acid administration according to the method by Matsunaga et al. (Matsunaga, Y. et al., Br. J. Dermatol., 156:884 (2007)). Briefly, a 24-mm width cellophane tape (Cellotape (trade mark), Nichiban Co., Ltd.) cut in a length suited to the dorsal length of a hairless mouse (HR-1 strain; Hoshino Laboratory Animals, Inc., Tokyo) was adhered evenly over the entire dorsal area and then peeled off. […] For example when a non-treated hairless mouse was subjected to the adhesion/peeling off cycle procedures, the first treatment involved four cycles, and the second and third treatments involved each five to six cycles and the treatment in the second week and later involved six to eight cycles, whereby increasing the quantity of the horny layer water loss to about to 8 mg/cm^2/h. […]

[3] = tested on: tape-stripped mice; assay: Skin thickening caused by tape stripping method; format: in vivo, HR-1 hairless mice; settings: 10 mM in drinking water for four weeks; tape stripping three times a week; negative control 1.2; p<0.1%
Method: as §4, §2
as §5, with “(2007)).” for “(2007)). Briefly, a 24-mm width cellophane tape (Cellotape (trade mark), Nichiban Co., Ltd.) cut in a length suited to the dorsal length of a hairless mouse (HR-1 strain; Hoshino Laboratory Animals, Inc., Tokyo) was adhered evenly over the entire dorsal area and then peeled off.”
Four weeks after the initiation of the D-glutamic acid administration, the skin thickness was measured using a thickness gauge. The measured value of the skin thickness represented as “skin thickness×2”, since the measurement was conducted by calipering the skin with the thickness gauge.

[4] = tested on: mice irradiated with ultraviolet rays; assay: Transepidermal water loss (skin barrier function) in mice irradiated with ultraviolet rays; format: in vivo, Skh-1 hairless mice; settings: 10 mM in drinking water for four weeks; UV-B three times a week, total 1.4 J/cm^2; control 16
Method: as §1, §2, §3
Four weeks after the initiation of the D-glutamic acid administration, the quantity of the transepidermal water loss was measured according to a standard method.

## N[C@H](CCC(=O)O)C(=O)O [D-glutamic acid]
[1]
  wrinkle score: 3.3
[2]
  wrinkle score: 1.5
[3]
  mean value of the skin thickness (skin thickness×2): 1.05
[4]
  quantity of the transepidermal water loss: 13
